Reference: patent US20220332742A1, “Naringin-Loaded Metal Organic Frameworks” (Colgate-Palmolive Company, priority 2021, published 2022)
Values after ≈ are worked out from the molar mass of the structure shown.

What was measured:
Format in all cases: cell-based
[1] = test system: Bacillus subtilis; assay: Antibacterial activity, MIC by micro-dilution method; conditions: TSB, lowest concentration that completely inhibits growth
Description: The antibacterial activity of the prepared MOF complexes is determined against Bacillus subtilis, by calculating minimal inhibitory concentration (MIC) using the micro-dilution method. Briefly, test samples are diluted with TSB solution to 2 mg/mL, and then further serial dilutions are prepared in TSB. Bacterial cultures are incubated in TSB for 16 hours, then 100 microliter suspensions are transferred to 4 mL of fresh medium and incubated for another 6 hours in order to reach mid-log phase stage. Then, the bacteria are diluted to provide 10^6 colony-forming units per mL (CFU/mL) based on OD600 measurement. […] The tested products are the naringin-loaded MOF prepared from 0.5 mg/ml naringin in ethanol, 0.5 mg/mL naringin in 1:4 ethanol/water solution, and 1 mg/mL naringin in 1:2.2 ethanol/water solution.

[2] = test system: IL-2; assay: IL-2 release from EL4 T cells, ELISA; conditions: 24 hours
Description: (§1) The ability of naringin-loaded MIL-101(Fe) to promote the release of IL-2 and TNF-alpha from EL4 T cells is evaluated. Enzyme-linked immunosorbent assay (ELISA) is performed according to the manufacturer specifications. Briefly, EL-4 T-cells are incubated in 96-well plates at an initial density of 8000 cells/well. The cell cultures are treated with either MIL-101(Fe), naringin or naringin-loaded MIL-101(Fe) (Example 1(d)) at the following concentrations in PBS: 0, 100, and 200 μg/mL. The plates are incubated for 24 hours at 37° C. in 5% CO2 atmosphere. The solutions are then transferred to a V-shaped 96 well plate and centrifuged at 500 g for 5 minutes. The supernatant solutions are then collected and the recommend ELISA protocol is performed. Absorbance at 450 and 540 nm is measured using a 96-well plate reader, and the results are compared to cytokine standard solutions.

[3] = test system: H1299 mouse lung tumor cells; assay: Tumor cell cytotoxicity, ATP viability assay (ATPLite 1-step Luminescence)
Description: The ability of naringin-loaded MIL-101(Fe) to kill H1299 […] lung tumor cells is evaluated using the ATP viability assay (Perkin Elmer, ATPLite 1-step Luminescence Assay). H1299 cells are seeded at 5000 cells/mL in white 96-well plates and incubated with either MIL-101(Fe), naringin or naringin-loaded MIL-101(Fe) (Example 1(d) at the following concentrations: 0, 3.125, 25, 50, 100, and 200 μg/mL. The ATP kit solution is then added to each well, and a 96-well microplate reader is used to measure total luminescence. Cell viability is calculated as a percentage of the luminescence of the untreated control. The results are shown in the following table: […]

[4] = test system: TNF-alpha; assay: TNF-alpha release from EL4 T cells, ELISA; conditions: 24 hours
Description: as §1

[5] = EL4 T cell viability, ATP viability assay (ATPLite 1-step Luminescence); conditions: mouse, EL4 T cells
Description: The ability of naringin-loaded MIL-101(Fe) to promote the viability of EL4 T cells is evaluated using the ATP viability assay (Perkin Elmer, ATPLite 1-step Luminescence Assay). EL4 T cells are seeded at 8000 cells/mL in white 96-well plates and incubated with either naringin or naringin-loaded MIL-101(Fe) (Example 1(d)) at the following concentrations: 3.125, 6.25, 12.5, 25, 50, 100, and 200 μg/mL. The ATP kit solution is then added to each well, and a 96-well microplate reader is used to measure total luminescence. Cell viability is calculated as a percentage of the luminescence of the untreated control.

[6] = 3.125 µg/mL of agent, % of untreated control

C[C@@H]1O[C@@H](O[C@H]2[C@H](Oc3cc(O)c4c(c3)O[C@H](c3ccc(O)cc3)CC4=O)O[C@H](CO)[C@@H](O)[C@@H]2O)[C@H](O)[C@H](O)[C@H]1O [Naringin]
MIC [1]: 5000 µg/mL (≈ 8.61 mM)
IL-2 concentration ([2]; 100 µg/mL of agent): 15.22 pg/mL
IL-2 concentration ([2]; 200 µg/mL of agent): 16.49 pg/mL
Cell viability (%) [3, 6]: 85.97%
Cell viability (%) ([3]; 25 µg/mL of agent): 73.26%
Cell viability (%) ([3]; 50 µg/mL of agent): 80.15%
Cell viability (%) ([3]; 100 µg/mL of agent): 87.10%
Cell viability (%) ([3]; 200 µg/mL of agent): 83.23%
TNF-alpha concentration ([4]; 100 µg/mL of agent): 10.64 pg/mL
TNF-alpha concentration ([4]; 200 µg/mL of agent): 9.92 pg/mL
viability at 3.125 µg/mL [5, 6]: 77%
viability at 6.25 µg/mL ([5]; 6.25 µg/mL of agent): 75.8%
viability at 12.5 µg/mL ([5]; 12.5 µg/mL of agent): 72.1%
viability at 25 µg/mL ([5]; 25 µg/mL of agent): 67%
viability at 50 µg/mL ([5]; 50 µg/mL of agent): 74.9%
viability at 100 µg/mL ([5]; 100 µg/mL of agent): 80.3%
viability at 200 µg/mL ([5]; 200 µg/mL of agent): 84.7%
